# Measurements taken from article PMC10835127, “Viruses traverse the human proteome through peptide interfaces that can be biomimetically leveraged for drug discovery” (Proceedings of the National Academy of Sciences of the …, 2024).
# Like-named read-outs stand apart in the source and are kept apart here.
# What was measured:
# [1] = tested on: F. novicida (strain U112); format: cell-based
# [2] = tested on: EBV; settings: for EBV Norm MEAN: normalized mean of EBV replication readout
# [3] = tested on: influenza A H1N1 virus; settings: 48 hr post-treatment, A549
# [4] = tested on: HIV1 strain NL4-3; format: cell-based; settings: for HIV1 Norm MEAN: normalized mean of HIV1 replication readout; for activity in HIV1 screen (in words): 20 µM peptide, HeLa P4 cells, β-galactosidase
# [5] = tested on: HCV replicon; format: cell-based; settings: normalized mean of HCV replicon readout
Substance,Francisella novicida Norm AUC [1],EBV Norm MEAN [2],Neuraminidase activity normalized to vehicle ([3]; 200 µM peptide),"Neuraminidase activity normalized to vehicle ([3]; 0,823 µM peptide)","Neuraminidase activity normalized to vehicle ([3]; 22,2 µM peptide)","Neuraminidase activity normalized to vehicle ([3]; 2,4691 µM peptide)","Neuraminidase activity normalized to vehicle ([3]; 7,4074 µM peptide)","Neuraminidase activity normalized to vehicle ([3]; 66,6667 µM peptide)",HIV1 Norm MEAN [4],HCV Norm MEAN [5],EBV Norm MEAN ([2]; peptide screen),HIV1 Norm MEAN ([4]; peptide screen),HCV Norm MEAN ([5]; peptide screen),activity in HIV1 screen (in words) [4],"enhancement of EBV signal ([2]; 20 µM peptide, Hone-1 cells, 48 h)"
IHTHARFLIT [CPEP139],1.233,1.5606,"0,8832","1,1262","0,9135","1,0704","1,0144","0,8125",2.216,0.5677,–,–,–,–,–
DLYCYEQLNDSSEEEDE [CPEP125],1.158,–,"0,7813","1,0772","1,1403","0,9577","1,1015","0,8979",–,–,1.019,1.6,0.9031,–,–
IKQEDIKP [CPEP109],0.9859,0.5875,"0,7052","0,9055","0,889","0,8881","0,975","0,8029",0.5534,0.2159,–,–,–,–,–
CPEP127: peptide of the viral peptide library; sequence page not shown (LVKPTVYVYSR),0.4703,0.673,"0,2557","0,9001","0,8705","1,007","0,8577","0,9535",1.624,0.6257,–,–,–,–,–
CPEP99: peptide of the viral peptide library; sequence page not shown (SWESHKSGGETRL),1.1,–,"1,0243","0,9063","1,004","0,994","0,9109","1,1024",–,–,0.7952,0.6504,0.3379,–,–
SVWIPVNEGASTSGM [CPEP77],1.232,–,"0,8793","0,7817","0,9377","0,8942","0,7709","0,8131",–,–,1.026,0.1545,0.6626,most potent anti-HIV1 peptide,–
DILDLWIYHTQGYFPDWQ [CPEP114],1.151,–,"0,4016","1,1783","1,017","1,0928","1,195","0,5539",–,–,1.296,4.359,0.2469,–,–
ARARALARGAGPANSV [CPEP47],0.949,–,"1,0179","1,0745","1,1923","1,0399","1,1089","1,0424",–,–,1.295,2.79,1.1445,–,–
PKKKRKV [CPEP56],1.16,0.9787,"0,9628","1,0162","0,9231","0,8416","0,8936","0,9527",0.9705,0.1426,–,–,–,–,–
CPEP103: viral library peptide from HCV NS4A targeting EEF1A1 (GCVVIVGRIVLSGK),0.5448,–,"0,0978","0,8342","0,2828","0,8866","0,7276","0,1254",–,–,0.7665,0.2448,0.4622,–,–
SAIASGIAVS [CPEP72],1.051,0.8997,"1,0607","1,0538","1,1913","1,1217","1,1419","1,1769",7.153,1.456,–,–,–,strongly,–
KKTKSLP [CPEP75],1.06,0.414,"0,6614","0,8942","0,8062","0,8135","0,8547","0,7577",0.7985,0.2042,–,–,–,–,–
LERVIFPSVKIATLV [CPEP53],0.5248,–,"0,9303","0,9211","1,0363","1,008","1,0347","1,0977",–,–,1.031,0.6568,0.3466,–,–
CPEP140: peptide of the viral peptide library; sequence page not shown (RKKRRQRRRA),0.8228,1.618,"0,616","0,9961","1,0982","1,0685","0,9007","1,0124",1.188,0.5668,–,–,–,–,–
CPEP86: peptide of the viral peptide library; sequence page not shown (SGFGPLITHG),0.8325,1.554,"0,9563","0,7964","1,0588","1,0728","0,943","1,0345",0.7849,0.5296,–,–,–,–,–
"CPEP71: viral library peptide from HIV1 Integrase, targets IPO7 (WKGPAKLLWKG)",1.748,2.918,"0,1137","0,7606","1,0288","1,0227","0,9266","0,9918",1.077,0.4108,–,–,–,–,more than 2 fold
YFADLLI [CPEP50],0.9176,1.15,"0,2471","0,883","0,8095","0,771","0,9007","0,7183",1.681,0.09464,–,–,–,–,–
GHRMAWDMMMNWSP [CPEP107],0.9779,–,"0,108","0,7424","0,9099","0,9047","0,8224","0,2891",–,–,0.9961,1.4249,0.9584,–,–
TGERDW [CPEP119],1.661,0.6578,"0,8047","0,8876","0,8371","0,7125","0,8133","0,8609",0.9503,0.3105,–,–,–,–,–
